These results are taken from patent publication US9662341B2, “Multifunctional topical formulation for the treatment of acne vulgaris and other skin conditions” (Kantian Sciences Corporation, priority 2011, dated 2017).

A short description of data set [1]: Percentage of mandelic acid in acid and salt forms at varying pH values. Type of data set: physicochemical. The text has this: The same consideration of activity vs. acid:salt forms applies to mandelic acid, where the antimicrobial activity of an aqueous solution containing this material is strongly dependent on the pH of the system.
In a further data set the test system is acne. Particulars: cited from earlier work.
A further data set concerns E. coli. The experiment in a line: Kill of E. coli within 30 seconds of contact (inventor's earlier studies). The format is cell-based.
For data set [2] the following is noted: HONO form in ratios of >~2:1 acid/salt.

Molecules are shown by their SMILES. Where two headings read alike, the source gives them in different places.

On to `O=C(O)[C@H](O)c1ccccc1` [Mandelate], for which the Mandelate % came out at 10% in data set [1] (pH 2.46); 20% in data set [1] (pH 2.81); 30% in data set [1] (pH 3.04); 40% in data set [1] (pH 3.23); 50% in data set [1] (pH 3.41); 60% in data set [1] (pH 3.59). Besides, the Mandelate % in data set [1] (pH 3.78) stood at 70%; in data set [1] (pH 4.01), 80%.

Consider `O=NO` [Nitrite], for which the Nitrite % runs as follows: (pH 1.5) 1.6%; (pH 2.0) 4.8%; (pH 2.3) 9.1%; (pH 2.6) 16.7%; (pH 2.8) 24.0%; (pH 3.0) 33.3%. The Nitrite % reads like this: (pH 3.3) 50.0%; (pH 3.5) 61.2%; (pH 4.0) 83.4%; (pH 4.5) 94.0%; (pH 5.0) 98.0%.

In the case of `O=C(O)CCCCCCCC(=O)O` [azelaic acid], the “Time for acne lesions to start disappearing” value with acne (after starting topical application) is recorded as “one to two months”. Further, the “Efficacy versus other topical Rx formulations” value in the data set with acne (benzoyl peroxide, tretinoin, antibiotics as comparators) was “works as well as other topical Rx formulations”.

Turning to `CC(O)C(=O)O` (centres unmarked) [lactic acid], the “E. coli killed relative to malic acid” value in the data set with E. coli was determined as 500 times.

`O=C(O)C(O)c1ccccc1` (centres unmarked) [mandelic acid]: the “E. coli killed relative to malic acid” value in the data set with E. coli worked out at 1.5 million. For the same compound, in the data set with E. coli (same conditions), the “E. coli killed relative to lactic acid” value amounted to 3000 times. Further, the “Mandelic Acid %” value came out at 90% in data set [1] (pH 2.46); 80% in data set [1] (pH 2.81); 70% in data set [1] (pH 3.04); 60% in data set [1] (pH 3.23); 50% in data set [1] (pH 3.41); 40% in data set [1] (pH 3.59). Besides, the “Mandelic Acid %” value worked out at 30% in data set [1] (pH 3.78) and 20% in data set [1] (pH 4.01).

Regarding `O=NO` [nitrous acid], the “longer-range stability of nitrous acid systems” value in data set [2] was “significantly diminished”. Besides, the “Nitrous Acid %” value is, setting by setting: (pH 1.5) 98.4%; (pH 2.0) 95.2%; (pH 2.3) 90.9%; (pH 2.6) 83.3%; (pH 2.8) 76.0%; (pH 3.0) 66.7%. The “Nitrous Acid %” value came to 50.0% (pH 3.3); 38.8% (pH 3.5); 16.6% (pH 4.0); 6.0% (pH 4.5); 2.0% (pH 5.0).
